Results from patent US7935720B2, “Crystal of substituted phenylalkanoic acid ester and process for producing the same” (Asahi Kasei Pharma Corporation, priority 2006, dated 2011).

Assays:
prostaglandin production = conditions: reported in Patent Document 1; cited from earlier work
leukotriene production = conditions: reported in Patent Document 1; cited from earlier work
[1] = Measurement of water content after filtration; assay type: physicochemical; conditions: wet crystals after filtration and dehydration; calculated from weight of wet crystals and weight after drying
Protocol: The respective water contents of the crystals obtained in Example 10 and Example 11 were calculated from the weight of the wet crystals and the weight of the crystals after drying.

[2] = Solubility test in Japanese Pharmacopoeia disintegration test fluids (HPLC); assay type: physicochemical; conditions: for Solubility to 1st fluid for disintegration test of Japanese Pharmacopoeia (pH 1.2) / Solubility to 2nd fluid for disintegration test of Japanese Pharmacopoeia (pH 6.8): shaken for 24 hours at 37° C.
Protocol: The type A crystals of compound 1 of the invention prepared according to Example 3, and the type B crystals of compound 1 of the invention prepared according to Example 4 were respectively weighed to 10 mg in a 10-mL centrifuge tube, 3 mL each of 1st fluid for disintegration test of Japanese Pharmacopoeia (pH 1.2) was added respectively, and the mixture solutions were shaken for 24 hours at 37° C. After the shaking, the solutions were filtered, 1 mL of each filtrate was exactly pipeted, and 1 mL of acetonitrile was exactly added to obtain a sample solution.
The sample solutions were analyzed by using HPLC technique with the following conditions and the concentration of the compound in the sample solution was determined by comparing it with that of a standard solution having an already known concentration under the following HPLC conditions, to determine the solubility.
The same test was performed with 2nd fluid for disintegration test of Japanese Pharmacopoeia (pH 6.8), to determine the solubility.
Detector: Ultraviolet absorption spectrometer (wavelength: 235 nm)
Mobile phase: 50 mmol/L sodium dihydrogen phosphate/acetonitrile (55:45)
Column: YMC-Pack Pro C18, internal diameter: 4.6 mm, length: 15 cm (YMC Corporation)
Column temperature: 40° C.

[3] = system: footpad edema in rat adjuvant arthritis; assay: Prophylactic and therapeutic effect against rat adjuvant arthritis; assay type: in vivo; conditions: oral, 0.1 to 50 mg/0.2 ml/kg, suspended in 0.5% methylcellulose; compared with the positive control group
Protocol: For the compounds of the invention, a suppressive effect against footpad edema in rat adjuvant arthritis, which is a disease model for chronic rheumatoid arthritis as being one of autoimmune diseases and also a chronic inflammatory disease, was investigated according to the method of International Patent Publication No. WO 03/70686. The test compound was suspended in purified water containing 0.5% methylcellulose, and was orally administered to test animals at a dose of 0.1 to 50 mg/0.2 ml/kg.

## Cn1ncc2cc(-c3cc(CCC(=O)O)cc(N)c3OC3Cc4ccccc4C3)ccc21 [Compound 1, 3-[3-amino-4-(indan-2-yloxy)-5-(1-methyl-1H-indazol-5-yl)phenyl]propionic acid]
Prostaglandin production
  Prostaglandin production suppressing effect: prostaglandin production suppressing effect
Leukotriene production
  Leukotriene production suppressing effect: leukotriene production suppressing effect

## Cn1ncc2cc(-c3cc(CCC(=O)O)cc(N)c3OC3Cc4ccccc4C3)ccc21 [Type A crystal, 3-[3-amino-4-(indan-2-yloxy)-5-(1-methyl-1H-indazol-5-yl)phenyl]propionic acid]
[1]
  Water content: 52.5%
[2]; 1st fluid (pH 1.2) and 2nd fluid (pH 6.8)
  Solubility of type A crystal relative to type B crystal: three-fold greater
[2]
  Solubility to 1st fluid for disintegration test of Japanese Pharmacopoeia (pH 1.2): 0.03 mg/mL
  Solubility to 2nd fluid for disintegration test of Japanese Pharmacopoeia (pH 6.8): 0.06 mg/mL
[3]
  Suppression of footpad edema in rat adjuvant arthritis: suppressed footpad edema

## Cn1ncc2cc(-c3cc(CCC(=O)O)cc(N)c3OC3Cc4ccccc4C3)ccc21 [Type B crystal, 3-[3-amino-4-(indan-2-yloxy)-5-(1-methyl-1H-indazol-5-yl)phenyl]propionic acid]
[1]
  Water content: 39.3%
[2]
  Solubility to 1st fluid for disintegration test of Japanese Pharmacopoeia (pH 1.2): 0.01 mg/mL
  Solubility to 2nd fluid for disintegration test of Japanese Pharmacopoeia (pH 6.8): 0.02 mg/mL
[3]
  Suppression of footpad edema in rat adjuvant arthritis: suppressed footpad edema
